Earlier results as cited in patent US20170231227A1, “ANTIFUNGAL-GRAFTED POLYOLEFIN” (priority 2016, published 2017).

C[C@@H]1C/C=C/C=C/C=C/C=C/[C@H](O[C@@H]2O[C@H](C)[C@@H](O)[C@H](N)[C@@H]2O)C[C@@H]2O[C@](O)(C[C@@H](O)C[C@H]3O[C@@H]3/C=C/C(=O)O1)C[C@H](O)[C@H]2C(=O)O [Natamycin, natamycin]
solubility in ethanol (pure ethanol): 40 ppm | solubility in water (water): poor
